*1 amine or outer side, *2 acyl side, *3 side chain or, on linkers, in order; H or OH if unused. Where a SMILES comes first, the peptide text is derived from it. Bridges are numbered along the chain shown (N, C = ends). X1 = O=C(CCC[*:2])[*:1]
How the values were obtained:
[1] = tested on: differentiated 3T3-L1 adipocytes; assay: Lipid metabolism in differentiated 3T3-L1 adipocytes in vitro; assay type: cell-based, Murine; conditions: incubated in the presence of OEA
Procedure: The in vitro effect of OT on lipid metabolism in differentiated 3T3-L1 adipocytes was assayed as follows. Murine 3T3-L1 fibroblasts were differentiated towards a […] phenotype as previously described (Olson et al., 1997, Mol. Cell. Biol., 2425-2435). In brief, cells were cultured in Dulbecco's modified eagle medium (DMEM) with 4.5 g/l glucose supplemented with 10% heat-inactivated depleted calf serum (DCS) at 37° C./8% CO2. Cells were induced to differentiate, two days post confluence, by sequential incubations with: DMEM 4.5 g/l glucose, 10% fetal bovine serum (FCS) containing 1 μg/ml insulin, 0.25 μM dexamethasone and 0.5 mM isobutylmethylxanthane (IBMX) for 4 days; DMEM 4.5 g/l glucose, 10% FCS containing insulin alone for an additional 4 days; DMEM 4.5 g/l glucose, 10% FCS for 3-4 days. Differentiation was considered achieved when more than 90% of cells display an accumulation of large lipid droplets in their cytoplasm.

HFD-induced obese rats = assay: High-fat diet-induced obesity rat model, subcutaneous infusion: body weight gain, food intake, body composition; assay type: in vivo; conditions: for food intake / body weight gain: 14 days; for body weight gain: not observed in pair-fed group
Procedure: Another group of the above male Wistar rats were rendered obese as described above and were subcutaneously infused with saline or OT (NeoMPS®, Strasbourg, France) (50 nmol/day/rat) during 14 days.
The beneficial metabolic effects of OT administration were assayed in the same high-fat diet induced obesity model in rats as in Example 1 and in PPAR-alpha knockout mice (Lee et al., 1995, Mol. Cell. Biol., 15(6):3012-22). HFD-induced obese animals, saline or OT groups (see conditions under Example 1) were subcutaneously infused via minipumps (Alzet®, as above). OT was delivered at a dose of 50 nmol/day/rat during 14 days.
An EchoMRI-700 quantitative nuclear magnetic resonance (QMR) analyzer (Echo Medical Systems, Houston, Tex.) was used to measure total fat mass and lean body mass in rats at the beginning and the end of the treatment.
The beneficial metabolic effects of administration of an oxytocin derivative according to the invention (Carbetocin) were assessed in the same rat model of high-fat diet induced obesity as in Example 1. HFD-induced obese animals were subcutaneously infused via minipumps (Alzet®, as above) with saline or carbetocin (Bachem) (5 nmol/day/rat or 50 nmol/day/rat) during 14 days.
Body composition parameters were measured by quantitative nuclear magnetic resonance as described in Example 3 at the beginning and 10 days of treatment.

SMILES: CCCCCCCC/C=C\CCCCCCCC(=O)NCCO [OEA, Oleoylethanolamide]
- mRNA expression of PPAR-alpha [1]: induce
- mRNA expression of most of the PPAR-alpha related genes (Acadm, Acox1, Ehhadh, Ucp3) [1]: induce

SMILES: CC[C@H](C)[C@@H]1NC(=O)[C@H](Cc2ccc(OC)cc2)NC(=O)CCCSC[C@@H](C(=O)N2CCC[C@H]2C(=O)N[C@@H](CC(C)C)C(=O)NCC(N)=O)NC(=O)[C@H](CC(N)=O)NC(=O)[C@H](CCC(N)=O)NC1=O [carbetocin, Butyryl-Tyr(Me)-Ile-Gln-Asn-Cys-Pro-Leu-Gly-NH2] (Y(Me)IQNCPLG-NH2; linker N-5 via X1)
- food intake (HFD-induced obese rats; s.c. 5 nmol/day): decreased
- body weight gain (HFD-induced obese rats; s.c. 5 nmol/day): decreased
- food intake (HFD-induced obese rats; s.c. 50 nmol/day): decreased
- body weight gain (HFD-induced obese rats; s.c. 50 nmol/day): decreased
- fat mass (QMR) (HFD-induced obese rats; s.c. carbetocin (5 nmol/d and 50 nmol/d groups), 10 days, independent of food intake): significant decrease
